Several values for one entry are separate records, joined by “and”; a condition that tells them apart may be missing. Equal values may be shown once.
Legend:
Experiment in all cases: 72-hour CellTiter-Glo 2.0 growth inhibition screen (single agent, 9x9 combination dose matrix)
Type in all cases: cell-based
AsPC-1 = tested on: AsPC-1
Experimental: (§1) Growth inhibition was determined using a 72-hour CellTiter-Glo®2.0 proliferation assay. Combination format was a 9×9 dose matrix. Six of the 20 cell lines received the original two combinations whilst the remaining 14 cell lines received two additional combinations resulting in four combinations in total. Results have been supplied as both Chalice Analyzer files (.mcc) and raw luminescence data.
(§2) Cell lines that have been preserved in liquid nitrogen are thawed and expanded in growth media (see Appendix I). Once cells have reached expected doubling times, screening begins. Cells are seeded in 25 μl of growth media in black 384-well tissue culture treated plates at 500 cells per well (as noted in Analyzer). Cells are equilibrated in assay plates via centrifugation and placed at 37° C. 5% CO2 for twenty-four hours before treatment. […] Compounds are transferred to assay plates using and Echo acoustic liquid handling system. […] of each compound was added at the appropriate concentration for all combination dose points. Therefore, final assay volume would be 25.05 μl. Assay plates are incubated with compound for 3 days and are then analyzed using CellTiter-Glo 2.0. All data points are collected via automated processes and are subject to quality control and analyzed.
(§3) If T≥V_0:100*(1−(T−V_0)/(V−V_0)) • where T is the signal measure for a test article, V is the untreated/vehicle-treated control measure, and Vo is the untreated/vehicle control measure at time zero (also colloquially referred as TO plates). This formula is derived from the Growth Inhibition calculation used in the National Cancer Institute's NCI-60 high throughput screen. For the purposes of this disclosure, all data analysis was performed in Growth Inhibition (except where noted).
(§4) Inhibition is also provided as a measure of cell viability. […] Inhibition of 100% represents no doubling of cell numbers during the treatment window. Both cytostatic and cytotoxic treatments can yield an Inhibition percentage of 100%. Inhibition percentage is calculated as the following: […]
(§5) The fractional inhibition for each component agent and combination point in the matrix is calculated relative to the median of all untreated/vehicle-treated control wells. The Synergy Score equation integrates the experimentally-observed activity volume at each point in the matrix in excess of a model surface numerically derived from the activity of the component agents using the Loewe model for additivity. Additional terms in the Synergy Score equation (above) are used to normalize for various dilution factors used for individual agents and to allow for comparison of synergy scores across an entire experiment. The inclusion of positive inhibition gating or an Idata multiplier removes noise near the zero-effect level, and biases results for synergistic interactions at that occur at high activity levels. Combinations with higher maximum Growth Inhibition (GI) effects or those which are synergistic at low concentrations will have higher Synergy Scores.
(§6) The CI is a rough estimate of how much drug was needed in combination relative to the single agent doses required to achieve the chosen effect level. CI values in the range of 0.5-0.7 are typical for in vitro measurements of current clinical combinations. The CI error (σCI) is calculated using standard error propagation through the CI calculation based on the isobologram errors. In the Chalice Analyzer, the Best CI is reported from the many CI values calculated for each Icut crossing combination. Among all the measured CI values, the one with the largest single-to-noise level (1−CI)/σCI is reported as the Best CI. Best CI Level is the effect level from which the CI is calculated.

Gp2D = tested on: Gp2D
Experimental: as §1, §2, §3, §4, §5, §6

HCC1171 = conditions: HCC1171, Lung; growth inhibition (GI), AUC, single agent, 72 h
Experimental: as §1, §2, §3, §4, §5, §6

HCC44 = conditions: HCC44, Lung; growth inhibition (GI), AUC, single agent, 72 h
Experimental: as §1, §2, §3, §4, §5, §6

HPAF-II = tested on: HPAF-II
Experimental: as §1, §2, §3, §4, §5, §6

KYSE-410 = tested on: KYSE-410
Experimental: as §1, §2, §3, §4, §5, §6

LS-513 = tested on: LS-513
Experimental: as §1, §2, §3, §4, §5, §6

MIA PaCa-2 = tested on: MIA PaCa-2
Experimental: as §1, §2, §3, §4, §5, §6

NCI-H1373 = tested on: NCI-H1373
Experimental: as §1, §2, §3, §4, §5, §6

NCI-H1792 = tested on: NCI-H1792
Experimental: as §1, §2, §3, §4, §5, §6

NCI-H2030 = tested on: NCI-H2030
Experimental: as §1, §2, §3, §4, §5, §6

NCI-H23 = tested on: NCI-H23
Experimental: as §1, §2, §3, §4, §5, §6

NCI-H358 = tested on: NCI-H358
Experimental: as §1, §2, §3, §4, §5, §6

Panc 04.03 = tested on: Panc 04.03
Experimental: as §1, §2, §3, §4, §5, §6

SW48 KRAS (G12C/+) = tested on: SW48 KRAS (G12C/+)
Experimental: as §1, §2, §3, §4, §5, §6

SW48 = tested on: SW48
Experimental: as §1, §2, §3, §4, §5, §6

SW837 = tested on: SW837
Experimental: as §1, §2, §3, §4, §5, §6

TOV-21G = conditions: TOV-21G, Ovary; growth inhibition (GI), AUC, single agent, 72 h
Experimental: as §1, §2, §3, §4, §5, §6

## C=C(F)C(=O)N1CCN(c2nc(OC[C@@H]3CCCN3C)nc3c2CCN(c2cccc4cccc(Cl)c24)C3)C[C@@H]1CC#N [MRTX849]
AsPC-1
  Loewe Volume: 0.71 and 0.37
AsPC-1; AsPC-1, Pancreas, growth inhibition (GI), AUC, single agent, 72 h
  Response Area: 2.27
Gp2D
  Loewe Volume: 0.46 and 0.37
Gp2D; Gp2D, Colorectal, growth inhibition (GI), AUC, single agent, 72 h
  Response Area: 1.86
HCC1171
  Response Area: 5.95
HCC44
  Response Area: 3.02
HPAF-II
  HSA volume: 1.34 and 0.93
HPAF-II; HPAF-II, Pancreas, growth inhibition (GI), AUC, single agent, 72 h
  Response Area: 2.04
KYSE-410
  Bliss Volume: 7.25 and 5.69
  HSA volume: 2.25 and 1.80
  Loewe Volume: 6.19 and 5.14
KYSE-410; KYSE-410, Esophageal, growth inhibition (GI), AUC, single agent, 72 h
  Response Area: 2.24
LS-513
  HSA volume: 0.51 and 0.34
  Loewe Volume: 0.85 and 0.46
LS-513; LS-513, Colorectal, growth inhibition (GI), AUC, single agent, 72 h
  Response Area: 1.56
MIA PaCa-2
  HSA volume: 5.25 and 2.97
  Loewe Volume: 4.29 and 2.30
NCI-H1373
  HSA volume: 2.06 and 1.03
NCI-H1373; NCl-H1373, Lung, growth inhibition (GI), AUC, single agent, 72 h
  Response Area: 4.82
NCI-H1792
  HSA volume: 4.71 and 3.40
  Loewe Volume: 5.13 and 3.37
NCI-H1792; NCl-H1792, Lung, growth inhibition (GI), AUC, single agent, 72 h
  Response Area: 3.02
NCI-H2030
  HSA volume: 1.90 and 1.28
NCI-H2030; NCl-H2030, Lung, growth inhibition (GI), AUC, single agent, 72 h
  Response Area: 2.65
NCI-H23
  HSA volume: 5.10 and 2.97
  Loewe Volume: 4.80 and 2.46
NCI-H23; NCl-H23, Lung, growth inhibition (GI), AUC, single agent, 72 h
  Response Area: 4.15
NCI-H358
  HSA volume: 2.90
NCI-H358; NCl-H358, Lung, growth inhibition (GI), AUC, single agent, 72 h
  Response Area: 5.85
Panc 04.03
  HSA volume: 0.64 and 0.37
  Loewe Volume: 3.31 and 1.76
Panc 04.03; Panc 04.03, Pancreas, growth inhibition (GI), AUC, single agent, 72 h
  Response Area: 2.20
SW48 KRAS (G12C/+)
  HSA volume: 4.53
  Loewe Volume: 4.75 and 2.96
SW48 KRAS (G12C/+); SW48 KRAS (G12C/+), Colorectal, growth inhibition (GI), AUC, single agent, 72 h
  Response Area: 2.88
SW48
  Bliss Volume: 9.14 and 4.79
  HSA volume: 3.40 and 2.30
  Loewe Volume: 6.95 and 4.49
SW48; SW48, Colorectal, growth inhibition (GI), AUC, single agent, 72 h
  Response Area: 2.78
SW837
  HSA volume: 6.87 and 4.50
  Loewe Volume: 5.57
SW837; SW837, Colorectal, growth inhibition (GI), AUC, single agent, 72 h
  Response Area: 5.55
TOV-21G
  Response Area: 2.28

Source: patent US20240016781A1, “TREATMENT OF KRAS MUTANT CANCERS” (MEI Pharma, Inc., priority 2020, published 2024)
